11 molecules from patent US20240400577A1, “MODULATORS OF PROTEIN KINASES” (VIBLIOME THERAPEUTICS, LLC, priority 2021, published 2024) can be followed below.

What all share (assay): Kinase panel enzymatic inhibition assay (Nanosyn)
Common to all, as to type: biochemical

The target of one experiment is T1, PLK4 (Homo sapiens, UniProt O00444).
T1 construct: Nanosyn (contract laboratory that ran the panel)
T1 sequence (O00444 1-970): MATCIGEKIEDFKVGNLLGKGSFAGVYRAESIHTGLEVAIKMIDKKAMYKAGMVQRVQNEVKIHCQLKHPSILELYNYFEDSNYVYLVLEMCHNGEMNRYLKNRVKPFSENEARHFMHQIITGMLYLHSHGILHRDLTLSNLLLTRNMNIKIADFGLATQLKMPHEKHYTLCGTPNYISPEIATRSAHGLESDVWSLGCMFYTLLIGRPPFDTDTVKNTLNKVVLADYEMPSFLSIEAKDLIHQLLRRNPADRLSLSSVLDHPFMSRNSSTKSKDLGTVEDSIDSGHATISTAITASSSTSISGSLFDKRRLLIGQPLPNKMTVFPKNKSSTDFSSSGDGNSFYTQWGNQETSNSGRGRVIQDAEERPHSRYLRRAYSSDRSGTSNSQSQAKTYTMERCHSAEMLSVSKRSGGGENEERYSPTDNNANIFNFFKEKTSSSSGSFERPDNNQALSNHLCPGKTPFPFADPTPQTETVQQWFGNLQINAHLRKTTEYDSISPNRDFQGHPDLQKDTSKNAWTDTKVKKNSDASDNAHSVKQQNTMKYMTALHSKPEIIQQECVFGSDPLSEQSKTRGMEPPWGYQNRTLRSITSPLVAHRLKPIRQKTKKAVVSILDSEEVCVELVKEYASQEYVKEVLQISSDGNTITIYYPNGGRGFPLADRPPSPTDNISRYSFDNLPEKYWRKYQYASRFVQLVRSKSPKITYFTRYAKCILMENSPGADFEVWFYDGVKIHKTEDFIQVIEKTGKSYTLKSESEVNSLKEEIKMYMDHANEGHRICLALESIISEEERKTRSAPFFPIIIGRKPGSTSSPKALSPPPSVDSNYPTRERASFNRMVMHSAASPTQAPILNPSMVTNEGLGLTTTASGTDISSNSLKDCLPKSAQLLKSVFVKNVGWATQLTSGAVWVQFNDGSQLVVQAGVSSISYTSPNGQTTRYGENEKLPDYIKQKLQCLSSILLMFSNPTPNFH
The conditions noted are these: ATP at Km; 30-minute pre-incubation; read-out: kinase inhibition in terms of IC50, PLK4. How it is done: (§1) The disclosed compounds were tested for activity against a panel of at least 300 kinases. Kinase panel screening was conducted by Nanosyn (Santa Clara, CA 95051) using an enzymatic inhibition assay accepted as valid by those skilled in the art (e.g., the Caliper LabChip® mobility shift assay, an ADP detection assay, or time-resolved fluorescence detection technology. Compounds were screened at a concentration of 5 μM using an ATP concentration at the Km for each of the respective kinases and a 30-minute pre-incubation time-point.
(§2) In Table 1 and 2, kinase inhibition is classified by: A=95% or greater, B=90%-94%, C=80%-89%, and D=79% and less with a compound concentration of 5 JIM. In Table 3 and 4, kinase inhibition is reported in terms of IC50 values corresponding to A=less than 500 nm, B=500 nm to less than 1 μM, C=1 μM to less than 10 μM, and D=10 μM or greater using a compound concentration of 5 μM.

A further experiment has as its target T2, WEE1 (Homo sapiens, UniProt P30291).
T2 construct: purchased Nanosyn
The settings on record: ATP at Km; 30-minute pre-incubation; read-out: kinase inhibition in terms of IC50, WEE1. How it is done: as §1, §2

For another experiment, the target named is T3, RIPK1 (Homo sapiens, UniProt Q13546).
T3 construct: purchased Nanosyn
T3 sequence (Q13546 1-671): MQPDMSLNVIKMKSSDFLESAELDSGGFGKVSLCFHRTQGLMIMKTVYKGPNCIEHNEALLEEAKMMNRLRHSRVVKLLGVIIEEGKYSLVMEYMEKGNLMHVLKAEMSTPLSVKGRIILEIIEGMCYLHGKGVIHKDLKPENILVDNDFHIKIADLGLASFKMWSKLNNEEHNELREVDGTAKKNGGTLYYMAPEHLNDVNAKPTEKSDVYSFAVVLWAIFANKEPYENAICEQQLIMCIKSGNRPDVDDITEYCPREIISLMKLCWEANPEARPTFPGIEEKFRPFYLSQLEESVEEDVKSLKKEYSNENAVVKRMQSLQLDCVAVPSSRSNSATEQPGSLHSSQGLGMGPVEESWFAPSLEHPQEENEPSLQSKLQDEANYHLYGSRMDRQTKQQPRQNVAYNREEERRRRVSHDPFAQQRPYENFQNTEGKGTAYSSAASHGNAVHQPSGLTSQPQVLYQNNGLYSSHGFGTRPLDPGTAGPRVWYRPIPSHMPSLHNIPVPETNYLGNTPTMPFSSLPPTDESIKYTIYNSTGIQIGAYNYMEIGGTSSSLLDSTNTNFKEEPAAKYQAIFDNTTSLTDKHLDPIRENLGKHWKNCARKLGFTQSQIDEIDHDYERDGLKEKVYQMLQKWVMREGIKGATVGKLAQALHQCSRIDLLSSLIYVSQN
The settings on record: ATP at Km; 30-minute pre-incubation; read-out: kinase inhibition in terms of IC50, RIPK1. As for the experimental part:
as §1, §2

The next experiment has as its target T4, RIPK2 (Homo sapiens, UniProt O43353).
T4 construct: purchased Nanosyn
The settings on record: ATP at Km; 30-minute pre-incubation; read-out: kinase inhibition in terms of IC50, RIPK2. How it is done:
as §1, §2

For another experiment, the target named is T5, TYRO3 (Homo sapiens, UniProt Q06418).
T5 construct: purchased Nanosyn
T5 sequence (Q06418 41-890): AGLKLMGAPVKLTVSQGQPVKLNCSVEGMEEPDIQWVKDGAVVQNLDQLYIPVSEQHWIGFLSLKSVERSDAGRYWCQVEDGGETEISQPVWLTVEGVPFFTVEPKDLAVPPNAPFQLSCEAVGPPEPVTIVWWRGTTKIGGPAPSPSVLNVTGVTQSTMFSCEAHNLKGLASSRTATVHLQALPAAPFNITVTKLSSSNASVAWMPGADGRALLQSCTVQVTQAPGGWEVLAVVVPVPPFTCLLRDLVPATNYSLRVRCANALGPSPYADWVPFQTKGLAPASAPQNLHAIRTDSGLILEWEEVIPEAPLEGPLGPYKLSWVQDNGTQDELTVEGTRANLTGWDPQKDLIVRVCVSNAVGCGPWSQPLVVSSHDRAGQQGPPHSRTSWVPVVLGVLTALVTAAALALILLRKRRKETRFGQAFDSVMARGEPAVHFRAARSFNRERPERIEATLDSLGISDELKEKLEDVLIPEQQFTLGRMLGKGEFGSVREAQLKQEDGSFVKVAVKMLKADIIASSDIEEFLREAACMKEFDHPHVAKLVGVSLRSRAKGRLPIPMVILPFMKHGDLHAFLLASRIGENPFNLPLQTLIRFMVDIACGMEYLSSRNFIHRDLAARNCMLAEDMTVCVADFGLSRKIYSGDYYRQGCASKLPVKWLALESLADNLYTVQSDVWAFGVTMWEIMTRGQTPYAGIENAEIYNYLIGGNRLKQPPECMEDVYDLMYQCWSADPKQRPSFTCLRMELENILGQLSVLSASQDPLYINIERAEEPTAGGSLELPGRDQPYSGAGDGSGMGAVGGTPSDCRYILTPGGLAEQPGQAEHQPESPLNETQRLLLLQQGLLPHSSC
The conditions noted are these: ATP at Km; 30-minute pre-incubation; read-out: kinase inhibition in terms of IC50, TYRO3. As for the experimental part:
as §1, §2

The next experiment deals with T6, SYK (Homo sapiens, UniProt P43405).
T6 construct: purchased Nanosyn
The conditions noted are these: ATP at Km; 30-minute pre-incubation; read-out: kinase inhibition in terms of IC50, SYK. How it is done: as §1, §2

The target in another experiment is T7, PAK1 (Homo sapiens, UniProt Q13153).
T7 construct: Nanosyn (contract laboratory that ran the panel)
T7 sequence (Q13153 whole entry): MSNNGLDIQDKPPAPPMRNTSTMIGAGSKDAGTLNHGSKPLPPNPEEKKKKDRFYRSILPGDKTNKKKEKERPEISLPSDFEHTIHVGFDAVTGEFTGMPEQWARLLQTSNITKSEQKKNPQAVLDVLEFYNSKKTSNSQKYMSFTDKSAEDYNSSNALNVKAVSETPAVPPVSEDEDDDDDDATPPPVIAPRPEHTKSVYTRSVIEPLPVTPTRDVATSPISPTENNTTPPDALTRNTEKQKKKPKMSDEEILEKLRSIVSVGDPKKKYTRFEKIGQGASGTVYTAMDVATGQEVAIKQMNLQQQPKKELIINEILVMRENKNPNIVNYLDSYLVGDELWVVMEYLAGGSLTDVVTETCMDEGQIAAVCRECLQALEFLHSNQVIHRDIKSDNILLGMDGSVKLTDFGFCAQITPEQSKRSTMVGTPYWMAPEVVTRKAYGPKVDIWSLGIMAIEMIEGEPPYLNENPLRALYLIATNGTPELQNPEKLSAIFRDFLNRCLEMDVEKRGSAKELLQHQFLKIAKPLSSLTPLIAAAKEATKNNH
The conditions noted are these: ATP at Km; 30-minute pre-incubation; read-out: kinase inhibition in terms of IC50, PAK1. As for the experimental part: as §1, §2

The target in the next experiment is T8, TAK1-TAB1 (Homo sapiens, UniProt O43318).
T8 construct: purchased Nanosyn
T8 sequence (O43318 with tags, fused parts or gaps limits assumed): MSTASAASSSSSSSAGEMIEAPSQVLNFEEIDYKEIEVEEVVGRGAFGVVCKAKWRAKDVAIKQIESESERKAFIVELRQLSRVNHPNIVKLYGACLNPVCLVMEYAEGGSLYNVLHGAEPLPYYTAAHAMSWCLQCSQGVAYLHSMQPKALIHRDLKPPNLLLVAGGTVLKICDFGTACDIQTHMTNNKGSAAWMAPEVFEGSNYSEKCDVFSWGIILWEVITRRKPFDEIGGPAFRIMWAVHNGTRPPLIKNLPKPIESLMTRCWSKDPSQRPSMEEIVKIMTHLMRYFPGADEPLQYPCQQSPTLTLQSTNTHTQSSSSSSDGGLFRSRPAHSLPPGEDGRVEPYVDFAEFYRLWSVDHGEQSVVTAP
The conditions noted are these: ATP at Km; 30-minute pre-incubation; read-out: kinase inhibition in terms of IC50, TAK1-TAB1. How it is done:
as §1, §2

T2 sequence (P30291 whole entry): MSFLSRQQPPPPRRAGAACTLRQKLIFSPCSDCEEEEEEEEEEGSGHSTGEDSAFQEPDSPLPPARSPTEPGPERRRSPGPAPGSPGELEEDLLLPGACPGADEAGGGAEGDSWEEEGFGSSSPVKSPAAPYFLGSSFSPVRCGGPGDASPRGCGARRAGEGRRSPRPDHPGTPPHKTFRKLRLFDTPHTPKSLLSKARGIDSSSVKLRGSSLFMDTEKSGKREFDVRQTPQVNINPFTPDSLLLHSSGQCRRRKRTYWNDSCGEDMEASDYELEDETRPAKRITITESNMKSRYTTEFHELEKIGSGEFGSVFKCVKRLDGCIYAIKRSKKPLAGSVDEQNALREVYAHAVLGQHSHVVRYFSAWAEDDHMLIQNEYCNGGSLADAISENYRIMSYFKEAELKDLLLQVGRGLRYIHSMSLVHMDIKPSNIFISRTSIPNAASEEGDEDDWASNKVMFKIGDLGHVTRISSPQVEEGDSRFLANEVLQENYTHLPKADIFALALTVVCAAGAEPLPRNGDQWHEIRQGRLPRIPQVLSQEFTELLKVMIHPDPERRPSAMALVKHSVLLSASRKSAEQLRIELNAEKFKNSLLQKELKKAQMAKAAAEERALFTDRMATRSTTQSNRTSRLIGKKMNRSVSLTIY
T4 sequence (O43353 whole entry): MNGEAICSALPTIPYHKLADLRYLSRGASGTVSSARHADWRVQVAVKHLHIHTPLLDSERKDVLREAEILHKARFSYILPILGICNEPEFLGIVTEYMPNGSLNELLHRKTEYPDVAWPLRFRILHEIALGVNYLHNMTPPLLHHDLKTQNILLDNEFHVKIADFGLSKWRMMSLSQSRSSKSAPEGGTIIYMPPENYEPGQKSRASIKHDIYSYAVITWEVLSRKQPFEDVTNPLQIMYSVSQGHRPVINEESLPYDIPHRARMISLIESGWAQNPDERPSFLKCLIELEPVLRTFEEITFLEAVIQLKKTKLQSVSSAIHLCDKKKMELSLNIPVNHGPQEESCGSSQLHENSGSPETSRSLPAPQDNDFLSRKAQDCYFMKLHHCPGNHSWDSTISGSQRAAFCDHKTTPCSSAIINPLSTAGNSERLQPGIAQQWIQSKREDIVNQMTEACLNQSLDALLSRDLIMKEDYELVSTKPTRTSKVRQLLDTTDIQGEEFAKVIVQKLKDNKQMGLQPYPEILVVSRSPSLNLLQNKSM

Usually IC50 stands for the concentration that inhibits the measured activity by half. Turning to `O=C(Nc1cccc(NC(=O)c2ccn(-c3ccc(F)cc3)n2)c1)c1cccc(-c2ccn[nH]2)n1` [Ex84, N-(3-(1-(4-fluorophenyl)-1H-pyrazole-3-carboxamido)phenyl)-6-(1H-pyrazol-5-yl)picolinamide], the IC50 on PLK4 was at least 10 µM. As for `CNc1ncc2cc(-c3c(Cl)ccc(NC(=O)c4ccn(-c5ccc(F)cc5)n4)c3Cl)c(=O)n(C)c2n1` [Ex82, N-(2,4-dichloro-3-(8-methyl-2-(methylamino)-7-oxo-7,8-dihydropyrido[2,3-d]pyrimidin-6-yl)phenyl)-1-(4-fluorophenyl)-1H-pyrazole-3-carboxamide], the IC50 on WEE1 was at least 10 µM. With `CS(=O)(=O)c1cc(C(=O)Nc2cc(Br)c(F)c(C(=O)c3c[nH]c4ncc(Cl)cc34)c2F)nn1-c1ccc(F)cc1` [Ex70, N-(5-bromo-3-(5-chloro-1H-pyrrolo[2,3-b]pyridine-3-carbonyl)-2,4-difluorophenyl)-1-(4-fluorophenyl)-5-(methylsulfonyl)-1H-pyrazole-3-carboxamide], the IC50 at WEE1 was at least 10 µM. In the case of `Cn1cnc2ccc(Oc3ccc(F)c(NC(=O)c4ccn(-c5ccc(F)cc5)n4)c3)cc2c1=O` [Ex80, N-(2-fluoro-5-((3-methyl-4-oxo-3,4-dihydroquinazolin-6-yl)oxy)phenyl)-1-(4-fluorophenyl)-1H-pyrazole-3-carboxamide], the concentration for half-maximal inhibition (IC50) at RIPK1 and at RIPK2 was at least 10 µM in each case. For the molecule `COc1cc2nccc(Oc3ccc(NC(=O)c4ccn(-c5ccc(F)cc5)n4)c(F)c3)c2cc1OC` [Ex78, N-(4-((6,7-dimethoxyquinolin-4-yl)oxy)-2-fluorophenyl)-1-(4-fluorophenyl)-1H-pyrazole-3-carboxamide], the IC50 at TYRO3 is below 500 nM; at SYK, 1 to 10 µM. For `CNc1ncc2c(C)c(-c3cc(NC(=O)c4ccn(-c5ccc(F)cc5)n4)ccc3Cl)c(=O)n(C)c2n1` [Ex69, N-(4-chloro-3-(5,8-dimethyl-2-(methylamino)-7-oxo-7,8-dihydropyrido[2,3-d]pyrimidin-6-yl)phenyl)-1-(4-fluorophenyl)-1H-pyrazole-3-carboxamide], the IC50 on WEE1 is at least 10 µM. As for `Nc1ncnc2scc(C#Cc3cccc(NC(=O)c4ccn(-c5ccc(F)cc5)n4)c3)c12` [Ex81, N-(3-((4-aminothieno[2,3-d]pyrimidin-5-yl)ethynyl)phenyl)-1-(4-fluorophenyl)-1H-pyrazole-3-carboxamide], the half-maximal inhibitory concentration (IC50) on SYK fell in the range of 1 to 10 µM. Regarding `CNc1ncc2cc(-c3cc(NC(=O)c4ccn(-c5ccc(F)cc5)n4)ccc3C)c(=O)n(C)c2n1` [Ex74, 1-(4-fluorophenyl)-N-(4-methyl-3-(8-methyl-2-(methylamino)-7-oxo-7,8-dihydropyrido[2,3-d]pyrimidin-6-yl)phenyl)-1H-pyrazole-3-carboxamide], the results for the IC50 at WEE1, on PAK1 and at SYK were at least 10 µM, at least 10 µM and 1 to 10 µM, respectively. With `COc1cc2nccc(Oc3ccc(NC(=O)c4cc(SC)n(-c5ccc(F)cc5)n4)c(F)c3)c2cc1OC` [Ex77, N-(4-((6,7-dimethoxyquinolin-4-yl)oxy)-2-fluorophenyl)-1-(4-fluorophenyl)-5-(methylthio)-1H-pyrazole-3-carboxamide], the IC50 is below 500 nM on TYRO3 and at least 10 µM at SYK. Consider `CC(=O)Nc1nc(C)c(-c2ccnc(Nc3cc(NC(=O)c4ccn(-c5ccc(F)cc5)n4)ccc3C)n2)s1` [Ex86, N-(3-((4-(2-acetamido-4-methylthiazol-5-yl)pyrimidin-2-yl)amino)-4-methylphenyl)-1-(4-fluorophenyl)-1H-pyrazole-3-carboxamide], for which, on PLK4, the IC50 was below 0.5 µM.

For `Cc1ccc(NC(=O)c2ccn(-c3ccc(F)cc3)n2)cc1Oc1ccnc2[nH]ccc12` [Ex83, N-(3-((1H-pyrrolo[2,3-b]pyridin-4-yl)oxy)-4-methylphenyl)-1-(4-fluorophenyl)-1H-pyrazole-3-carboxamide], on TAK1-TAB1, the IC50 was at least 10 µM.
